Reference: DBAASP
Values after ≈ are worked out from the molar mass of the structure shown.

Legend:
Experiment in all cases: ≥ marks a high value that may be exact or a test limit, other limits are often not marked, values filed in µg/mL are converted to µM
[1] = test system: Bacillus subtilis
[2] = test system: Candida albicans ATCC 2002
[3] = test system: Escherichia coli ML-35p
[4] = test system: Pseudomonas aeruginosa ATCC 27853
[5] = test system: Pseudomonas aeruginosa PAO1
[6] = test system: Staphylococcus aureus ATCC 25923
[7] = test system: Staphylococcus aureus ATCC 43300
[8] = test system: Candida albicans ATCC 10231
[9] = test system: Cryptococcus neoformans ATCC 32045
[10] = test system: Escherichia coli ATCC 2592
[11] = test system: Pseudomonas aeruginosa ATCC 10145
[12] = test system: Staphylococcus aureus ATCC 33591
[13] = test system: Acinetobacter baumannii ATCC 19606
[14] = test system: Candida albicans ATCC 90028
[15] = test system: Cryptococcus neoformans ATCC 208821
[16] = test system: Escherichia coli ATCC 25922
[17] = test system: Klebsiella pneumoniae ATCC 700603
[18] = test system: Escherichia coli JW0013

SMILES	MIC [4]	MIC [7]	MIC [8]	MIC [9]	MIC [10]	MIC [11]	MIC [12]	also measured
CC(C)C[C@H](NC(=O)[C@H](C)NC(=O)CNC(=O)[C@H](Cc1ccccc1)NC(=O)[C@H](CC(C)C)NC(=O)[C@H](CC(C)C)NC(=O)[C@@H]1CCCN1C(=O)[C@H](Cc1ccccc1)NC(=O)[C@@H](N)Cc1ccccc1)C(=O)N[C@@H](CO)C(=O)N[C@@H](CO)C(=O)N[C@@H](Cc1cnc[nH]1)C(=O)N[C@@H](CC(C)C)C(=O)N1CCC[C@H]1C(=O)N[C@@H](CCCCN)C(=O)N[C@@H](CC(C)C)C(=O)N[C@@H](Cc1ccccc1)C(N)=O [FFPLLFGALSSHLPKLF]	1.94 µM (≈ 3.75 µg/mL)	3.88 µM (≈ 7.5 µg/mL)	–	–	–	–	–	MIC [1]: 3.88 µM (≈ 7.5 µg/mL); MIC [2]: 1.94 µM (≈ 3.75 µg/mL); MIC [3]: 7.75 µM (≈ 15 µg/mL); MIC [5]: 1.94 µM (≈ 3.75 µg/mL); MIC [6]: 1.94 µM (≈ 3.75 µg/mL)
C[C@H](NC(=O)[C@H](CCCCN)NC(=O)[C@H](Cc1ccccc1)NC(=O)[C@H](C)NC(=O)[C@H](CCCCN)NC(=O)[C@H](Cc1ccccc1)NC(=O)[C@H](C)NC(=O)[C@H](CCCCN)NC(=O)[C@H](Cc1ccccc1)NC(=O)[C@H](C)NC(=O)[C@H](CCCCN)NC(=O)[C@H](Cc1ccccc1)NC(=O)[C@H](C)NC(=O)[C@H](CCCCN)NC(=O)[C@H](Cc1ccccc1)NC(=O)[C@H](C)NC(=O)[C@H](CCCCN)NC(=O)[C@H](Cc1ccccc1)NC(=O)[C@H](C)NC(=O)[C@H](CCCCN)NC(=O)[C@@H](N)Cc1ccccc1)C(=O)O [FKAFKAFKAFKAFKAFKAFKA]	–	–	145 µM (≈ 354 µg/mL)	2.32 µM (≈ 5.66 µg/mL)	9.26 µM (≈ 22.6 µg/mL)	13.1 µM (≈ 32 µg/mL)	≥ 205 µM	–
C[C@H](NC(=O)[C@H](Cc1ccccc1)NC(=O)[C@H](CCCCN)NC(=O)[C@H](CCCCN)NC(=O)[C@H](C)NC(=O)[C@H](Cc1ccccc1)NC(=O)[C@H](CCCCN)NC(=O)[C@H](CCCCN)NC(=O)[C@H](C)NC(=O)[C@H](Cc1ccccc1)NC(=O)[C@H](CCCCN)NC(=O)[C@H](CCCCN)NC(=O)[C@H](C)NC(=O)[C@H](Cc1ccccc1)NC(=O)[C@H](CCCCN)NC(=O)[C@H](CCCCN)NC(=O)[C@H](C)NC(=O)[C@H](Cc1ccccc1)NC(=O)[C@H](CCCCN)NC(=O)[C@H](CCCCN)NC(=O)[C@H](C)NC(=O)[C@H](Cc1ccccc1)NC(=O)[C@@H](N)CCCCN)C(=O)N[C@@H](CCCCN)C(=O)O [KFAKKFAKKFAKKFAKKFAKKFAK]	–	–	34.9 µM (≈ 100 µg/mL)	7.9 µM (≈ 22.6 µg/mL)	3.95 µM (≈ 11.3 µg/mL)	5.58 µM (≈ 16 µg/mL)	≥ 61.7 µM	–
C[C@H](NC(=O)[C@H](Cc1ccccc1)NC(=O)[C@H](CCCCN)NC(=O)[C@H](CCCCN)NC(=O)[C@H](C)NC(=O)[C@H](Cc1ccccc1)NC(=O)[C@@H](N)CCCCN)C(=O)N[C@@H](CCCCN)C(=O)O [KFAKKFAK]	–	–	> 258 µM	≥ 258 µM	≥ 258 µM	≥ 258 µM	≥ 258 µM	–
CC(C)C[C@H](NC(=O)[C@H](CCCCN)NC(=O)[C@H](CC(C)C)NC(=O)[C@H](CCCCN)NC(=O)[C@H](CC(C)C)NC(=O)[C@H](CCCCN)NC(=O)[C@H](CC(C)C)NC(=O)[C@H](CCCCN)NC(=O)[C@H](CC(C)C)NC(=O)[C@H](CCCCN)NC(=O)[C@H](CC(C)C)NC(=O)[C@H](CCCCN)NC(=O)[C@@H](N)CC(C)C)C(=O)N[C@@H](CCCCN)C(=O)O [LKLKLKLKLKLKLK]	–	–	207 µM (≈ 354 µg/mL)	1.66 µM (≈ 2.83 µg/mL)	30.9 µM (≈ 52.8 µg/mL)	≥ 73.2 µM	≥ 207 µM	–
CC(C)C[C@H](NC(=O)[C@H](CCCN=C(N)N)NC(=O)[C@H](CC(C)C)NC(=O)[C@H](CCCN=C(N)N)NC(=O)[C@H](CC(C)C)NC(=O)[C@H](CCCN=C(N)N)NC(=O)[C@H](CC(C)C)NC(=O)[C@H](CCCN=C(N)N)NC(=O)[C@H](CC(C)C)NC(=O)[C@H](CCCN=C(N)N)NC(=O)[C@H](CC(C)C)NC(=O)[C@H](CCCN=C(N)N)NC(=O)[C@H](CC(C)C)NC(=O)[C@H](CCCN=C(N)N)NC(=O)[C@H](CC(C)C)NC(=O)[C@H](CCCN=C(N)N)NC(=O)[C@@H](N)CC(C)C)C(=O)N[C@@H](CCCN=C(N)N)C(=O)O [LRLRLRLRLRLRLRLRLR]	–	–	145 µM (≈ 354 µg/mL)	≥ 36 µM	≥ 51.2 µM	≥ 102 µM	≥ 72.4 µM	–
CC[C@H](C)[C@H](NC(=O)[C@H](C)NC(=O)[C@@H](NC(=O)[C@@H](NC(=O)[C@H](CCCCN)NC(=O)[C@@H](NC(=O)[C@H](CCCCN)NC(=O)[C@H](CC(=O)O)NC(=O)[C@H](CCCN=C(N)N)NC(=O)[C@@H](NC(=O)[C@@H](N)CO)[C@@H](C)CC)[C@@H](C)CC)[C@@H](C)O)[C@@H](C)CC)C(=O)N[C@@H](CC(=O)O)C(=O)N[C@@H](CC(C)C)C(=O)N[C@@H](C)C(=O)N[C@@H](CCCCN)C(=O)N[C@@H](CO)C(=O)N[C@@H](C)C(=O)NCC(=O)N[C@H](C(=O)NCC(=O)N[C@H](C(=O)N[C@@H](CC(C)C)C(=O)N[C@@H](CCCCN)C(=O)N[C@H](C(=O)N[C@@H](CC(C)C)C(=O)N[C@H](C(=O)N[C@H]1CSSC[C@@H](C(=O)O)NC(=O)[C@H](CO)NC(=O)[C@H](CCCCN)NC(=O)[C@H](CC(N)=O)NC(=O)[C@H](CC(C)C)NC(=O)[C@H](CCCCN)NC1=O)[C@@H](C)CC)[C@@H](C)O)C(C)C)[C@@H](C)O [SIRDKIKTIAIDLAKSAGTGVLKTLICKLNKSC]	–	3.57 µM (≈ 12.5 µg/mL)	–	–	–	–	–	MIC [1]: 5.35 µM (≈ 18.7 µg/mL); MIC [2]: 5.35 µM (≈ 18.7 µg/mL); MIC [3]: 7.14 µM (≈ 25 µg/mL); MIC [6]: 4.28 µM (≈ 15 µg/mL)
CC[C@H](C)[C@H](NC(=O)[C@H](CCCN=C(N)N)NC(=O)[C@H](CCCN=C(N)N)NC(=O)[C@@H]1CCCN1C(=O)[C@@H]1CCCN1C(=O)[C@H](CCCN=C(N)N)NC(=O)[C@@H]1CCCN1C(=O)[C@H](CCCN=C(N)N)NC(=O)[C@@H]1CCCN1C(=O)[C@H](CCCCN)NC(=O)[C@H](Cc1ccc(O)cc1)NC(=O)[C@H](Cc1cnc[nH]1)NC(=O)[C@H](CCCN=C(N)N)NC(=O)[C@H](CCCCN)NC(=O)[C@H](CC(=O)O)NC(=O)[C@@H](N)C(C)C)C(=O)N[C@@H](Cc1ccc(O)cc1)C(=O)N[C@@H](CC(N)=O)C(=O)N[C@@H](CCCN=C(N)N)C(N)=O [VDKRHYKPRPRPPRRIYNR]	–	–	–	–	–	–	–	MIC [18]: 0.519 µM (≈ 1.3 µg/mL)
CC[C@H](C)[C@H](NC(=O)[C@H](CCCN=C(N)N)NC(=O)[C@H](CCCN=C(N)N)NC(=O)[C@@H]1CCCN1C(=O)[C@@H]1CCCN1C(=O)[C@H](CCCN=C(N)N)NC(=O)[C@@H]1CCCN1C(=O)[C@H](CCCN=C(N)N)NC(=O)[C@@H]1CCCN1C(=O)[C@H](CC(C)C)NC(=O)[C@H](Cc1ccc(O)cc1)NC(=O)[C@H](Cc1cnc[nH]1)NC(=O)[C@H](CCCN=C(N)N)NC(=O)[C@H](CCCCN)NC(=O)[C@H](CC(=O)O)NC(=O)[C@@H](N)C(C)C)C(=O)N[C@@H](Cc1ccc(O)cc1)C(=O)N[C@@H](CC(N)=O)C(=O)N[C@@H](CCCN=C(N)N)C(N)=O [VDKRHYLPRPRPPRRIYNR]	–	–	–	–	–	–	–	MIC [18]: 0.683 µM (≈ 1.7 µg/mL)

The next lines start with results.

MIC [4]	MIC [7]	MIC [8]	MIC [9]	MIC [10]	MIC [11]	MIC [12]	SMILES	also measured
> 18.9 µM	18.9 µM (≈ 32 µg/mL)	–	–	–	–	–	NC(N)=NCCC[C@H](NC(=O)[C@H](CCCN=C(N)N)NC(=O)[C@H](CS)NC(=O)[C@H](CCCN=C(N)N)NC(=O)[C@H](Cc1cnc[nH]1)NC(=O)[C@H](CO)NC(=O)[C@H](CCCN=C(N)N)NC(=O)[C@H](CS)NC(=O)[C@H](CS)NC(=O)[C@H](CCCN=C(N)N)NC(=O)[C@H](Cc1cnc[nH]1)NC(=O)[C@H](Cc1cnc[nH]1)NC(=O)[C@@H](N)CO)C(=O)O [SHHRCCRSHRCRR]	MIC [13]: > 18.9 µM; MIC [14]: 18.9 µM (≈ 32 µg/mL); MIC [15]: 4.72 µM (≈ 8 µg/mL); MIC [16]: > 18.9 µM; MIC [17]: > 18.9 µM
> 18 µM	> 18 µM	–	–	–	–	–	CC(C)C[C@H](NC(=O)[C@H](CCCN=C(N)N)NC(=O)[C@@H]1CCCN1C(=O)[C@H](CCCN=C(N)N)NC(=O)[C@H](Cc1cnc[nH]1)NC(=O)[C@H](Cc1cnc[nH]1)NC(=O)[C@@H](N)CO)C(=O)N[C@@H](Cc1ccccc1)C(=O)N[C@@H](Cc1cnc[nH]1)C(=O)N[C@@H](CCCN=C(N)N)C(=O)N[C@@H](Cc1cnc[nH]1)C(=O)N[C@@H](CCCN=C(N)N)C(=O)N[C@@H](Cc1cnc[nH]1)C(=O)O [SHHRPRLFHRHRH]	MIC [13]: > 18 µM; MIC [14]: 18 µM (≈ 32 µg/mL); MIC [15]: 18 µM (≈ 32 µg/mL); MIC [16]: > 18 µM; MIC [17]: > 18 µM
> 17.9 µM	> 17.9 µM	–	–	–	–	–	CC(C)C[C@H](NC(=O)[C@H](CCCN=C(N)N)NC(=O)[C@@H]1CCCN1C(=O)[C@H](CCCN=C(N)N)NC(=O)[C@H](Cc1cnc[nH]1)NC(=O)[C@H](Cc1cnc[nH]1)NC(=O)[C@@H](N)CO)C(=O)N[C@@H](Cc1ccccc1)C(=O)N[C@@H](Cc1cnc[nH]1)C(=O)N[C@@H](CCCN=C(N)N)C(=O)N[C@@H](CCCN=C(N)N)C(=O)N[C@@H](CCCN=C(N)N)C(=O)N[C@@H](Cc1cnc[nH]1)C(=O)O [SHHRPRLFHRRRH]	MIC [13]: > 17.9 µM; MIC [14]: 17.9 µM (≈ 32 µg/mL); MIC [15]: 17.9 µM (≈ 32 µg/mL); MIC [16]: > 17.9 µM; MIC [17]: > 17.9 µM
